Laboratory results as given in patent US10004722B2, “Method for treating hepatic encephalopathy or a disease associated with free radical mediate stress and oxidative stress with novel functionalized 1,3-benzene diols” (KANNALIFE SCIENCES, INC., priority 2014, dated 2018).
“And” between values parts separate entries of the source, which are not always exact repeats. Equal values may be shown once. Read-outs that look alike come from different tables or passages of the source.

What was measured:
[1] = in vivo; design: species or system CD1 mice
Protocol: (§1) The pharmacokinetic profile of compounds of the disclosure are determined in CD1 mice by administering IV and PO doses of the compounds of the disclosure to the CD1 mice. Plasma samples are drawn at 0.083, 0.25, 0.5, 1.0, 2.0, 4.0, 8.0, and 24 hours to determine the plasma concentration of the compounds of the disclosure. Brain and CSF samples were collected at 0.25 hours, 2 hours, and 8 hours post dosing. IV doses were prepared as solutions in 5% Dimethylacetamide (DMAC), 5% Solutol HS 15 and 90% Saline at 0.4 mg/mL PO doses were prepared as solutions in 5% Dimethylacetamide (DMAC), 5% Solutol HS 15 and 90% Saline at 1 mg/mL. Experimental results for exemplary compounds of the disclosure are described in tables 6-9 and FIGS. 1 and 2.

[2] = system: hippocampal cultures; experiment: Neuroprotection from 30 mM ethanol plus 300 μM ammonium acetate, CFDA assay; format: cell-based; conditions: Rattus norvegicus, read-out: NP from ethanol + AmAc CFDA EC50
Text: (§2) Cell cultures: All compounds were screened with dissociated hippocampal cultures derived from embryonic day 18 rats as the primary test system. With this preparation, primary neurons were used to test for toxicity as well as neuroprotection in a highly relevant experimental system to hepatic encephalopathy (HE). In brief, hippocampal tissue was obtained commercially through Brain Bits (Springfield, Ill.) and cultures prepared as previously described (Brewer, 1995). The hippocampal neurons were platted at low density (10,000 cell/well) in a 96-well format and maintained in serum-free medium consisting of Neurobasal Medium supplemented with B27 and GlutaMAX (Gibco). Pre-coated poly-D-lysine coated plates will be used because of the adherence and survival of hippocampal neurons and glia on this matrix support.
(§3) The central objective of all neuroprotective assays was their relevancy to oxidative stress related to HE and other or diseases associated with oxidative stress in general. These studies use phenotypic assays of neuroprotection because the molecular target(s) mediating the action of cannabidiol-like protecting substances is unknown. Both the amount of ethanol and ammonia used in the assays, as well as the time of treatment and duration of the experiment, were designed to be relevant to HE (Ong et al, 2003). […]

[3] = system: hippocampal cultures; experiment: Neuroprotection from 300 μM ammonium acetate, CFDA assay; format: cell-based; conditions: Rattus norvegicus, read-out: NP from AmAc CFDA EC50
Text: as §2, §3

[4] = Pharmacokinetic profile after an IV dose in CD1 mice; format: in vivo
Protocol: as §1

[5] = system: hippocampal cultures; experiment: Neuroprotection from 30 mM ethanol plus 300 μM ammonium acetate, propidium iodide (PI) assay; format: cell-based; conditions: Rattus norvegicus, read-out: NP from ethanol + AmAc PI EC50
Text: as §2, §3

[6] = system: hippocampal cultures; experiment: cells; format: cell-based; conditions: Rattus norvegicus, 30 mM ethanol, propidium iodide, read-out: NP from Ethanol PI EC50
Text: Cell cultures: All compounds were screened with dissociated hippocampal cultures derived from embryonic day 18 rats as the primary test system. With this preparation, primary neurons were used to test for toxicity as well as neuroprotection in a highly relevant experimental system to hepatic encephalopathy (HE). In brief, hippocampal tissue was obtained commercially through Brain Bits (Springfield, Ill.) and cultures prepared as previously described (Brewer, 1995). The hippocampal neurons were platted at low density (10,000 cell/well) in a 96-well format and maintained in serum-free medium consisting of Neurobasal Medium supplemented with B27 and GlutaMAX (Gibco). […]
These studies use phenotypic assays of neuroprotection because the molecular target(s) mediating the action of cannabidiol-like protecting substances is unknown. […] Further, all time parameters employed in these studies were empirically determined to be within the limits of reversible toxic events after treatment with cannabidiol (Hamelink et al., 2005) and cannabidiol-like substances, yet using amounts of ethanol (30 mM) and ammonia (300 μM ammonium acetate) that were relevant to the disease. […]
Carboxyfluorescein (CFDA) was used a vital stain for all neuroprotection studies. […] The test agents were evaluated with the two assays during a 5 hour test period. […]

[7] = system: hippocampal cultures; experiment: Neuroprotection from 30 mM ethanol, CFDA assay; format: cell-based; conditions: Rattus norvegicus, read-out: NP from Ethanol CFDA EC50
Protocol: Cell cultures: All compounds were screened with dissociated hippocampal cultures derived from embryonic day 18 rats as the primary test system. […] The hippocampal neurons were platted at low density (10,000 cell/well) in a 96-well format and maintained in serum-free medium consisting of Neurobasal Medium supplemented with B27 and GlutaMAX (Gibco).
The effective working concentration of ethanol that was empirically determined to produce toxicity in the hippocampal cultures was 30 mM.
Carboxyfluorescein (CFDA) was used a vital stain for all neuroprotection studies. With the use of the CytoFluor fluorimeter, the CFDA assay was employed to assess the viability of neurons. […] Cultures were treated within the period of culture vulnerability for toxins relevant to HE: between days 11 and 22 after cell plating. The test agents were evaluated with the two assays during a 5 hour test period. For all assays, a 96-well format was used. […] Cultures were given a complete change of medium prior to the initiation of the treatment period.
A compound of the disclosure was added to the hippocampal cultures for a five hour period. Compounds were tested from 10 nM to 100 μM. At the conclusion of the test period, the cultures were tested for the amount of neuronal viability by the CFDA method. […]

[8] = system: hippocampal cultures; experiment: cells; format: cell-based; conditions: Rattus norvegicus, 300 μM ammonium acetate, propidium iodide, read-out: NP from AmAc PI EC50
Text: as §2, §3

[9] = CD1, mouse, in vivo, po, 10 mg/kg
[10] = PO 10 mg/kg, CD1 mice, 0.25 hr, listed as KLS-13019, 10 mg/kg
[11] = PO 10 mg/kg, CD1 mice, 2 hr, listed as KLS-13019, 10 mg/kg
[12] = CD1, mouse, in vivo, iv, 2 mg/kg

Compound `C=C(C)[C@@H]1CCC(C)=C[C@H]1c1c(O)cc(CC2CN(C(C)=O)C2)cc1O` [Example 2, 1-(3-(3,5-dihydroxy-4-((1R,6R)-3-methyl-6-(prop-1-en-2-yl)cyclohex-2-enyl)benzyl)azetidin-1-yl)ethanone] has a Tmax [1, 9] of 15 min, a half-life [1, 9] of 319 min and a concentration at 0.25 h ([1]; CD1, mouse, in vivo, po, 10 mg/kg, PO 10 mg/kg, CD1 mice, 0.25 hr, read-out: Brain concentration, mean) of 469 ng/mL. The Kp at 0.25 h ([1]; CD1, mouse, in vivo, po, 10 mg/kg, PO 10 mg/kg, CD1 mice, 0.25 hr, read-out: Brain/Plasma (%), individual) was 0.801, the Kp at 0.25 h ([1]; CD1, mouse, in vivo, po, 10 mg/kg, PO 10 mg/kg, CD1 mice, 0.25 hr, read-out: Brain/Plasma (%), mean) was 0.821 and the concentration at 0.25 h ([1]; CD1, mouse, in vivo, po, 10 mg/kg, PO 10 mg/kg, CD1 mice, 0.25 hr, read-out: CSF concentration, mean) was 8.95 ng/mL. For the same compound, the Kp at 0.25 h ([1]; CD1, mouse, in vivo, po, 10 mg/kg, PO 10 mg/kg, CD1 mice, 0.25 hr, read-out: CSF/Plasma (%), individual) was 0.0179, the Kp at 0.25 h ([1]; CD1, mouse, in vivo, po, 10 mg/kg, PO 10 mg/kg, CD1 mice, 0.25 hr, read-out: CSF/Plasma (%), mean) was 0.0155 and the concentration at 2 h ([1]; CD1, mouse, in vivo, po, 10 mg/kg, PO 10 mg/kg, CD1 mice, 2 hr, read-out: Brain concentration, mean) was 126 ng/mL. The Kp at 2 h ([1]; CD1, mouse, in vivo, po, 10 mg/kg, PO 10 mg/kg, CD1 mice, 2 hr, read-out: Brain/Plasma (%), individual) was 1.15, the Kp at 2 h ([1]; CD1, mouse, in vivo, po, 10 mg/kg, PO 10 mg/kg, CD1 mice, 2 hr, read-out: Brain/Plasma (%), mean) was 1.17 and the concentration at 2 h ([1]; CD1, mouse, in vivo, po, 10 mg/kg, PO 10 mg/kg, CD1 mice, 2 hr, read-out: CSF concentration, mean) was 2.65 ng/mL. The Kp at 2 h ([1]; CD1, mouse, in vivo, po, 10 mg/kg, PO 10 mg/kg, CD1 mice, 2 hr, read-out: CSF/Plasma (%), individual) was 0.0255, the Kp at 2 h ([1]; CD1, mouse, in vivo, po, 10 mg/kg, PO 10 mg/kg, CD1 mice, 2 hr, read-out: CSF/Plasma (%), mean) was 0.0291 and the F ([1]; CD1, mouse, po, 10 mg/kg) was 67.1%. For the same compound, the Tmax ([1]; CD1, mouse, po, 10 mg/kg) was 15 min, the half-life ([1]; CD1, mouse, po, 10 mg/kg) was 322 min and the “Brain/CSF, mean” value ([1]; PO 10 mg/kg, CD1 mice, 0.25 hr) was 53.5. For the same compound, the “Brain/CSF, individual” value [1, 10] was 44.7 and 61.3 and 54.6, the “Brain/Plasma (%), individual” value [1, 10] was 87.4% and 78.7% and the “CSF/Plasma (%), individual” value [1, 10] was 1.42% and 1.44%. The “Brain/CSF, mean” value ([1]; PO 10 mg/kg, CD1 mice, 2 hr) was 43.7, the “Brain/CSF, individual” value [1, 11] was 45.0 and 60.3 and 25.9 and the “Brain/Plasma (%), individual” value [1, 11] was 136% and 101%. For the same compound, the “CSF concentration, individual” value [1, 11] was 3.60 ng/mL and 3.00 ng/mL and 1.35 ng/mL, the “CSF/Plasma (%), individual” value [1, 11] was 2.26% and 3.91% and the “Brain concentration, individual” value ([1]; PO 10 mg/kg, CD1 mice, 8 hr) was “BQL”. For the same compound, the “Brain concentration, mean” value ([1]; PO 10 mg/kg, CD1 mice, 8 hr) was “BQL”, the “Brain/Plasma (%), mean” value ([1]; PO 10 mg/kg, CD1 mice, 8 hr) was “BQL” and the “CSF concentration, individual” value ([1]; PO 10 mg/kg, CD1 mice, 8 hr) was “BQL”. The “CSF concentration, mean” value ([1]; PO 10 mg/kg, CD1 mice, 8 hr) was “BQL”, the “CSF/Plasma (%), mean” value ([1]; PO 10 mg/kg, CD1 mice, 8 hr) was “BQL” and the EC50 [2] was 127 nM. It also gave an EC50 [3] of 61 nM, an AUC(0-inf) [4, 12] of 440 ng·h/mL and an AUC(0-t) [4, 12] of 431 ng·h/mL. For the same compound, the MRT inf [4, 12] was 42.1 min, the Vd [4, 12] was 3.19 L/kg and the clearance [4, 12] was 75.8 mL/min/kg. For the same compound, the half-life ([4]; mouse, plasma, IV 2 mg/kg, CD1 mice, read-out: Terminal t1/2 (converted)) was 194 min, the EC50 [5] was 203 nM and the EC50 [6] was 46 nM. The EC50 [7] was 175 nM and the EC50 [8] was 38 nM.

For `C=C(C)[C@@H]1CCC(C)=C[C@H]1c1c(O)cc(CC2CN(C(=O)OCC)C2)cc1O` [Example 3, ethyl 3-(3,5-dihydroxy-4-((1R,6R)-3-methyl-6-(prop-1-en-2-yl)cyclohex-2-enyl)benzyl)azetidine-1-carboxylate], the EC50 [2] was 87 nM, the EC50 [3] was 105 nM and the EC50 [5] was 61 nM. The EC50 [6] was 20 nM, the EC50 [7] was 30 nM and the EC50 [8] was 50 nM.
